In brackets after ≈: the same amount, converted by molar mass.
How the values were obtained:
B16-F0 (Mouse melanoma) = test: MTT test on B16-F0 cells; type: cell-based; conditions: for IC50: Mus musculus, B16F0, B16-F0 cells, MTT, till 48 h
Protocol: (§1) The in vitro anticancer activities of the synthesized compounds were conducted using different cancerous and non-cancerous cell lines viz B16-F0 (Mouse melanoma), mouse Ehrlich Ascites Carcinoma (EAC), MCF-7 (Human breast cancer), MCF-10A (Human breast epithelial cells), and NIH/3T3 (Mouse fibroblast cells). All cell lines were procured from the National Centre for Cell Science, Pune, India. The procured cells were cultured in a six-well culture plate with Dulbecco’s Modified Eagle’s Medium (DMEM) supplemented with 10% fetal bovine serum in a humid CO2 incubator with 5% carbon dioxide at 37 °C.
(§2) The anti-cancer effect and cytotoxicity of both 3-MBTSc and 4-NBTSc compounds were evaluated against different cancerous (MCF-7, EAC, B16-F0 cells) and noncancerous cells (MCF-10A, NIH-3T3 cells) using MTT test. In brief, the stock solutions of both the tested compounds were prepared by dissolving 1 mg of each compound in 1 mL of DMSO separately. Then, four different concentrations (5, 10, 12, and 20 µg/mL) of both compounds were used during the test along with the negative control. Also, 10 μg/mL of doxorubicin (Dox) was used as the positive control during the experiment. Both untreated and treated cells were incubated for next 24 and 48 h. Then, all the steps during the whole experiment were carried out by our earlier reported procedure. Later, the absorbance values were measured by an ELISA reader (Biorad, Hercules, CA, USA) at 570 nm wavelength using secondary wavelength as a reference at 620 nm and the percentages of cell viability was calculated using the following formula [59, 60, 61]. Cell viability (%)= Mean absorbance of treated cells/Mean absorbance of untreated cells × 100
Based on the cell viability data, the IC50 values of both compounds were calculated on different cancer cells by plotting their corresponding dose-responsive graphs.
The obtained data were statistically analyzed. The descriptive analysis was done and the IC50 values were calculated by fitting the sigmoidal dose responsive graph using GraphPad Prism (GraphPad Software, Inc., La Jolla, CA, USA). […]

[1] = MTT cytotoxicity test on MCF-10A cells; type: cell-based, Human; conditions: human, MCF-10A breast epithelial cells
Protocol: as §1, §2

[2] = tested on: MCF-10A (Human breast epithelial cells); test: MTT cytotoxicity test on MCF-10A cells; type: cell-based; conditions: 48 h
Protocol: as §1, §2

Row | Structure (SMILES) | IC50 (B16-F0 (Mouse melanoma)) | viability at 48 h [1] | toxicity [2] | inhibition of cell growth (B16-F0 (Mouse melanoma); B16-F0 cell line, MTT assay)
1 | NC(=S)N[N-][CH+]c1ccc([N+](=O)[O-])cc1 [4-NBTSc, 4-Nitrobenzaldehyde thiosemicarbazone] | 7.129 ± 0.012 µg/mL (≈ 31.8 µM) | > 80% | less than 20% | –
2 | COc1cccc(C=NNC(N)=S)c1 [3-MBTSc, 3-Methoxybenzaldehyde thiosemicarbazone] | 2.904 ± 0.013 µg/mL (≈ 13.9 µM) | > 80% | less than 20% | 50.42%

Reference: article PMC8533299, “Synthesis, In Silico Study, and Anti-Cancer Activity of Thiosemicarbazone Derivatives” (Biomedicines, 2021)
